Assay results from patent publication US8247569B2, “Cyclohexane derivative and pharmaceutical use thereof” (Toray Industries, Inc., priority 2008, dated 2012).

Columns and labels:
[1] = human liver microsomal stability assay; format: in vitro ADME; conditions: liver microsomes, pH 7.4, human liver microsomes 0.5 mg/mL, test compound 2 μmol/L, 37° C., 0-30 min, read-out: Hepatic intrinsic clearance, Human
Procedure: (§1) A liver microsomal stability assay, which is known to be an in vitro assay for evaluation of the stability of a compound against hepatic metabolism, was carried out to evaluate the stability of Compound (I) against human and mouse hepatic metabolism.
(§2) A total of 4 times of experiments were carried out for the combinations of the compound of Example 2-B or the compound of Comparative Example 29 as the test compound and human liver microsomes (Xenotech) or mouse liver microsomes (Xenotech) as the liver microsomes.
The respective reagents to be used for the liver microsomal stability assay were prepared as follows. That is, an appropriate amount of D-glucose 6-phosphate disodium salt (hereinafter referred to as G6P) was dissolved in distilled water at 100 mmol/L, to prepare 100 mmol/L aqueous G6P solution. In 5 mL of distilled water, 1000 units of Glucose 6-phosphate dehydrogenase from Yeast (hereinafter referred to as G6PDH) was dissolved, to prepare 200 units/mL aqueous G6PDH solution. An appropriate amount of MgCl2 was dissolved in distilled water at 100 mmol/L, to prepare 100 mmol/L aqueous MgCl2 solution. To 500 mL of 200 mmol/L aqueous K2HPO4 solution, 200 mmol/L aqueous KH2PO4 solution (about 130 mL) was added, and pH was adjusted to 7.4, to prepare 200 mmol/L KH2PO4/K2HPO4 buffer pH7.4 (hereinafter referred to as 200 mmol/L PB). β-nicotinamide-adenine dinucleotide phosphate, reduced form, tetrasodium salt (hereinafter referred to as (NADPH) was dissolved in distilled water such that the NADPH content becomes 10 mmol/L based on the purity (Purity NADPH) in the assay data described in the attached document, to prepare 10 mmol/L aqueous NADPH solution.
The liver microsomal stability assay was carried out according to the following procedure. First, the reagents listed in Table 12 (excluding microsomes) were mixed together to prepare a reaction mixture, and the reaction mixture was aliquoted in 130 μL volumes to 4 wells (which play roles as the wells for the 0-minute reaction, well for the 30-minute reaction, well for the 20-minute reaction and well for the 10-minute reaction, respectively) in a 96-well tube plate (BM Equipment Co., Ltd; hereinafter referred to as plate). The entire plate was covered with a silicone cap, and the plate was subjected to preincubation by being soaked in a water bath at 37° C. for 10 minutes.
After the preincubation, 3.75 μL of 20 mg/mL microsome suspension+16.25 μL of distilled water (20 μL in total) were added to the well for the 30-minute reaction, and the plate was covered with the cap, followed by soaking the plate in a water bath at 37° C. to initiate the reaction.
Ten minutes after the beginning of the reaction, 3.75 μL of 20 mg/mL microsome suspension+16.25 μL of distilled water (20 μL in total) were added to the well for the 20-minute reaction, and 20 minutes after the beginning of the reaction, 3.75 μL of 20 mg/mL microsome suspension+16.25 μL of distilled water (20 μL in total) were added to the well for the 10-minute reaction. The reaction was further continued by keeping the plate soaked in the water bath at 37° C.
Thirty minutes after the beginning of the reaction, the plate was removed from the water bath, and 120 μL of acetonitrile was added to each well, followed by covering the plate with the cap, stirring the plate for 10 seconds with Direct Mixer, and stopping the reaction by 10 minutes of ice cooling. After the reaction was stopped, 3.75 μL of 20 mg/mL microsome suspension+16.25 μL of distilled water (20 μL in total) were added to the well for the 0-minute reaction.
The reaction liquid in each well was centrifuged at 4° C. at 2500 rpm for 10 minutes, and the supernatant was transferred to a glass-coated microplate (TOMSIC Plate+) to begin LC/MS/MS analysis. The conditions for the LC/MS/MS analysis were as follows: […]

[2] = mouse liver microsomal stability assay; format: in vitro ADME; conditions: pH 7.4; mouse liver microsomes 0.5 mg/mL; test compound 2 μmol/L; 37° C., 0-30 min; read-out: Hepatic intrinsic clearance, Mouse
Procedure: as §1, §2
The respective reagents to be used for the liver microsomal stability assay were prepared as follows. That is, an appropriate amount of D-glucose 6-phosphate disodium salt (hereinafter referred to as G6P) was dissolved in distilled water at 100 mmol/L, to prepare 100 mmol/L aqueous G6P solution. In 5 mL of distilled water, 1000 units of Glucose 6-phosphate dehydrogenase from Yeast (hereinafter referred to as G6PDH) was dissolved, to prepare 200 units/mL aqueous G6PDH solution. An appropriate amount of MgCl2 was dissolved in distilled water at 100 mmol/L, to prepare 100 mmol/L aqueous MgCl2 solution. […]

[3] = pharmacokinetics (PK) test in mice; format: in vivo; conditions: mouse, plasma, female CD1 (ICR) mice, fasted
Procedure: Example 2-B or Comparative Example 29 was orally administered to mice, and the plasma level after the administration was measured to study the influence of improvement of the metabolic stability in liver microsomes on the change in the plasma level of the compound.
Female CD1 (ICR) mice of 7 weeks old which had been fed ad libitum with pellets (Oriental Yeast Co., Ltd.) and tap water were fasted for 17 hours before the administration. Feeding to the mice was begun again 4 hours after the administration.
In the case of intravenous administration of the solution, the animal was fixed in a holder, and the administration was carried out from the tail vein without anesthesia, using a syringe with an injection needle (25 G) attached thereto. In the case of oral administration, a syringe with a feeding needle attached thereto was used without anesthesia to force the solution into the stomach.
In terms of the mice to which the solution was intravenously administered, blood was collected a total of 8 times from the jugular vein or heart 5, 15 and 30 minutes and 1, 2, 4, 8 and 24 hours after the intravenous administration. In terms of the mice to which the solution was orally administered, blood was collected a total of 8 times from the jugular vein or heart 15, 30 and 45 minutes and 1, 2, 4, 8 and 24 hours after the oral administration. Further, from the jugular vein or heart of mice to which the solution was not administered, blood was collected as a blank. The collected blood was centrifuged at 4° C. at 12000 rpm for 5 minutes, and the obtained mouse plasma and blank plasma were stored at about −20° C. until preparation of samples for analysis. […]
From the results of the LC/MS/MS analysis, a calibration curve was prepared using Analysis 1.4 (Applied Biosystems). Based on the LC/MS/MS analysis and the prepared calibration curve, the concentration in each measurement sample was calculated using Analysis 1.4. For 3 times each of the experiments by intravenous administration and oral administration, the mean plasma level at each time point was calculated, and PK analysis was carried out using the obtained values (FIG. 6 and FIG. 7; each plot indicates the mean plasma level at each time point and its ±standard deviation; i.v. indicates test data by intravenous administration; and p.o. indicates test data by oral administration). The PK parameter was calculated using WinNonlin (Pharsight) by analysis independent of the models (intravenous administration: Model 201, oral administration: Model 200). Further, the bioavailability (BA) was calculated by normalization by dividing AUC0-24 hr from the time point of the intravenous administration or oral administration to the time point of the final blood collection by the dose.

[4] = evaluation of safety using mice, 5-day repeated oral administration; format: in vivo; conditions: Crlj:CD1 (ICR) mice; repeated oral administration for 5 days; assumed value
Procedure: Crlj:CD1 (ICR) mice of 7 weeks old were subjected to repeated oral administration of Example 2-B or Comparative Example 29 for 5 days, and observation of clinical sign, measurement of body weight, hematology, blood chemistry, gross autopsy, measurement of organ weight and histopathology were carried out. Further, on Day 1 and Day 5 after the administration, TK measurement was carried out. Exposure to the respective compounds was confirmed.
The doses of Example 2-B were 0, 40, 200 and 1000 mg/kg/day, and those of Comparative Example 29 were 0, 30, 100 and 300 mg/kg/day. The solution to be administered was prepared using 0.5% aqueous methyl cellulose solution as a vehicle, such that the administration volume becomes 10 mL/kg.

[5] = system: mouse sciatic nerve-ligation model (Seltzer model); assay: mouse partial sciatic nerve ligation model (Seltzer model), von Frey test; conditions: positive controls, gabapentin 30 mg/kg oral, dose of Comparative Example 29 not given

COc1ccc(-n2nc(C3(O)CCN(C(=O)N(C)O)CC3)c(F)c2-c2ccc(C)cc2)cc1 [Comparative Example 29, 4-(4-Fluoro-1-(4-methoxyphenyl)-5-(4-tolyl)-1H-pyrazol-3-yl)-1-(N-hydroxy-N-methylcarbamoyl)-4-piperidinol, reference compound]
microsomal CLint at 2 μmol/L [1]: 110 µL/min/mg
microsomal CLint at 2 μmol/L [2]: 267 µL/min/mg
clearance ([3]; intravenous, read-out: total body clearance (converted)): 94.5 mL/min/kg
bioavailability ([3]; oral vs intravenous administration, from dose-normalized AUC0-24 hr, read-out: bioavailability (BA)): 54%
no-observed-adverse-effect-level [4]: less than 30 mg/kg/day
analgesic effect 3 hours after the oral administration (von Frey test) [5]: drastically decreased
time of strongest analgesic effect after oral administration (von Frey test) ([5]; FIGS. 1 to 4): 1 h
